Measurements from patent US20240358693A1, “METHODS OF TREATING PAIN” (Aisa Pharma, Inc., priority 2023, published 2024).

System: participants with SSc-RP
Experiment: Average severity of weekly RP attacks (VAS 0-10 cm scale)
Format: in vivo, human
Text: The absolute change in average severity of weekly RP attacks (VAS 0-10 cm scale) from baseline to the end of each Dosing Period was and will be a secondary outcome variable. The sponsor-developed participant-informed diary will be used to record data. Average severity of weekly RP attacks is defined as the total severity scores of RP attacks divided by total number of RP attacks within the last 7 days of each dosing period. Total severity scores of RP attacks during the last 7 days of screening period divided by the total number of RP attacks will be used as baseline for the analysis of all periods. The variable will be calculated similar to frequency data as before.

[1] = Excluding Outliers, Tadalafil 5 mg, second Baseline RCS subgroup block (not named), ITT Part A
[2] = Excluding Outliers, Tadalafil 5 mg, second Baseline RCS subgroup block (not named), ITT Part A, score 0-10
[3] = Tadalafil 5 mg, n=1, Excluding Outliers, ITT Population - Part A
[4] = Tadalafil 5 mg, n=2, ITT Population - Part A
[5] = Tadalafil 5 mg, n=2, by Baseline RCS, second subgroup, ITT Population - Part A
[6] = Tadalafil 5 mg, Excluding Outliers, ITT Population - Part A
[7] = Tadalafil 5 mg, Excluding Outliers, by Baseline RCS, second subgroup, ITT Population - Part A
[8] = Tadalafil 5 mg, ITT Population - Part A
[9] = Tadalafil 5 mg, second Baseline RCS subgroup block (not named), ITT Part A
[10] = Tadalafil 5 mg, second Baseline RCS subgroup block (not named), ITT Part A, score 0-10

CN1CC(=O)N2[C@H](c3ccc4c(c3)OCO4)c3[nH]c4ccccc4c3C[C@@H]2C1=O [Tadalafil, tadalafil]
−22.01%: Average Severity of Weekly Symptomatic RP Attacks, Percent Change from Baseline, Mean [3] | Average Severity of Weekly Symptomatic RP Attacks, Percent Change from Baseline, Median [3] | Average Severity of Weekly Symptomatic RP Attacks, Percent Change from Baseline, Mean [7] | Average Severity of Weekly Symptomatic RP Attacks, Percent Change from Baseline, Median [7]
4.67: Average Severity (0-10) of Weekly Symptomatic RP Attacks, Mean [3] | Average Severity (0-10) of Weekly Symptomatic RP Attacks, Median [3] | Average Severity of Weekly Symptomatic RP Attacks (Mean) [7] | Average Severity of Weekly Symptomatic RP Attacks (Median) [7]
−1.19: Average Severity of Weekly RP Attacks (All Attacks), Change from Baseline, Mean [2] | Average Severity of Weekly RP Attacks (All Attacks), Change from Baseline, Median [2] | Average Severity of Weekly RP Attacks (All Attacks), Change from Baseline, Mean [6] | Average Severity of Weekly RP Attacks (All Attacks), Change from Baseline, Median [6]
4.56: Average Severity of Weekly RP Attacks (All Attacks), Mean [2] | Average Severity of Weekly RP Attacks (All Attacks), Median [2] | Average Severity of Weekly RP Attacks (All Attacks), Mean [6] | Average Severity of Weekly RP Attacks (All Attacks), Median [6]
−8.97%: Average Severity of Weekly RP Attacks (All Attacks), Percent Change from Baseline, Mean [8] | Average Severity of Weekly RP Attacks (All Attacks), Percent Change from Baseline, Median [8] | Average Severity of Weekly RP Attacks (All Attacks), Percent Change from Baseline, Mean [9] | Average Severity of Weekly RP Attacks (All Attacks), Percent Change from Baseline, Median [9]
−10.43%: Average Severity of Weekly Symptomatic RP Attacks, Percent Change from Baseline, Mean [4] | Average Severity of Weekly Symptomatic RP Attacks, Percent Change from Baseline, Median [4] | Average Severity of Weekly Symptomatic RP Attacks, Percent Change from Baseline, Mean [5] | Average Severity of Weekly Symptomatic RP Attacks, Percent Change from Baseline, Median [5]
7.02: Average Severity of Weekly RP Attacks (All Attacks), Mean [8] | Average Severity of Weekly RP Attacks (All Attacks), Median [8] | Average Severity of Weekly RP Attacks (All Attacks), Mean [10] | Average Severity of Weekly RP Attacks (All Attacks), Median [10]
7.08: Average Severity (0-10) of Weekly Symptomatic RP Attacks, Mean [4] | Average Severity (0-10) of Weekly Symptomatic RP Attacks, Median [4] | Average Severity (0-10) of Weekly Symptomatic RP Attacks, Mean [5] | Average Severity (0-10) of Weekly Symptomatic RP Attacks, Median [5]
−1.32: Average Severity of Weekly Symptomatic RP Attacks, Change from Baseline, Mean [3] | Average Severity of Weekly Symptomatic RP Attacks, Change from Baseline, Median [3] | Average Severity of Weekly Symptomatic RP Attacks, Change from Baseline, Mean [7] | Average Severity of Weekly Symptomatic RP Attacks, Change from Baseline, Median [7]
−20.69%: Average Severity of Weekly RP Attacks (All Attacks), Percent Change from Baseline, Mean [1] | Average Severity of Weekly RP Attacks (All Attacks), Percent Change from Baseline, Median [1] | Average Severity of Weekly RP Attacks (All Attacks), Percent Change from Baseline, Mean [6] | Average Severity of Weekly RP Attacks (All Attacks), Percent Change from Baseline, Median [6]
−0.47: Average Severity of Weekly RP Attacks (All Attacks), Change from Baseline, Mean [8] | Average Severity of Weekly RP Attacks (All Attacks), Change from Baseline, Median [8] | Average Severity of Weekly RP Attacks (All Attacks), Change from Baseline, Mean [10] | Average Severity of Weekly RP Attacks (All Attacks), Change from Baseline, Median [10]
6.3%: reduction in severity (more severe disease at baseline (RCS>5.0), n=2 per treatment)
−0.60: Average Severity of Weekly Symptomatic RP Attacks, Change from Baseline, Mean [4] | Average Severity of Weekly Symptomatic RP Attacks, Change from Baseline, Median [4] | Average Severity of Weekly Symptomatic RP Attacks, Change from Baseline, Mean [5] | Average Severity of Weekly Symptomatic RP Attacks, Change from Baseline, Median [5]
